{"source": "patent US12037363B2", "about": "“Peptides for Covid-19 prevention and treatment” (SOTIRA COVID, LLC, priority 2020, dated 2024)", "key": {"[1]": {"biological_target": "full-length ACE-2 protein (Homo sapiens, UniProt Q9BYF1)", "sequence (Q9BYF1 18-805)": "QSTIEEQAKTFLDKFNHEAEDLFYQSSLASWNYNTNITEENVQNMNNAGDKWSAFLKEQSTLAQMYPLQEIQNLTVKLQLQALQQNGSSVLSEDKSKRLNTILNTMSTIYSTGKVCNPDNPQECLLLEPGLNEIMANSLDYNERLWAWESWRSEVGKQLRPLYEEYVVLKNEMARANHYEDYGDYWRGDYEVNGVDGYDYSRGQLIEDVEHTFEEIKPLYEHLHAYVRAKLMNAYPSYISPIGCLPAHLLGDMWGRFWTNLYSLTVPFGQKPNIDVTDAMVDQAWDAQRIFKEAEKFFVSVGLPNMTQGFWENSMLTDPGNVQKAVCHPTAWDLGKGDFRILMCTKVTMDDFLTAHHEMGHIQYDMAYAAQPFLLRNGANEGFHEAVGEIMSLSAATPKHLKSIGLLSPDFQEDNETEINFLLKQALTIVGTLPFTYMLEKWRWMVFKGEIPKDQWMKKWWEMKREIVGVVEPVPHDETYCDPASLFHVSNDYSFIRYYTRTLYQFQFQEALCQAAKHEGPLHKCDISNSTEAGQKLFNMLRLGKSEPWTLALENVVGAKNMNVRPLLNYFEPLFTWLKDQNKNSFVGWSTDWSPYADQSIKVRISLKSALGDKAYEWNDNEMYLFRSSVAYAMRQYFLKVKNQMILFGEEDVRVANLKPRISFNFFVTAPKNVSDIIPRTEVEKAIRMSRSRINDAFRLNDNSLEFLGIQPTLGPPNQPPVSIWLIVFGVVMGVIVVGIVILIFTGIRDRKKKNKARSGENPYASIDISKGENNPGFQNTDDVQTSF", "assay": "BLItz label-free bio-layer interferometry assay", "format": "binding", "description": "The ACIS peptide is specifically designed from the part of S-glycoprotein that is conserved only in the coronaviral family. Because of this specificity there is no possibility of any off-target effect. […] Blitz assay was used to confirm the specificity of ACIS peptide towards ACE-2 protein.\nThe experiment was performed based on manufacturer's instructions. Briefly, biotinylated ACIS peptide was bound to the BLItz streptavidin-linked biosensor. Different doses of ACE-2 enzyme were then charged to the ACIS peptide and then washed.\nTo further characterize the binding between ACIS and ACE-2, BLItz label-free bio-layer interferometry assay was performed. ACIS (0.25 μg/μL) was loaded to the sensor and titrated with different concentration of ACE-2 protein starting with the concentration as low as 10 nM. […] BLItz sensor was loaded with ACIS peptide (0.25 μg/μL) followed by titration with different concentrations of ACE-2 enzyme starting from nM range.\nThis can prevent or inhibit the infection of a host cell by SARS-CoV2 virus."}, "[2]": {"tested_on": "SARS-CoV2 (SARS CoV-2 USA_WA1/2020) in VERO cells", "assay": "Cytopathic effect (agar monolayer invasion) test of supernatants of treated VERO cells", "format": "cell-based"}, "ACE-2 [3]": {"biological_target": "T1, ACE-2 (Homo sapiens, UniProt Q9BYF1)", "T1 sequence (Q9BYF1 18-805)": "as above", "assay": "surface plasmon resonance (SPR)", "details": "different concentrations of ACIS as analyte; hyperbolic binding curve"}, "[4]": {"tested_on": "SARS-CoV2 in VERO E6 cells", "assay": "dual immunostaining of ACIS peptide and S-glycoprotein in infected VERO cells", "format": "cell-based", "details": "25 μM", "description": "Further confirming the profound activity of KEPTIDE COVIDs in the attenuation of viral infection, a dual immunostaining analyses with ACIS peptide (green) and S-glycoprotein (red) was performed. DAPI staining was carried out to identify big nuclei of VERO cells. […] The result was further corroborated with a quantification study that clearly indicated a strong inhibition of viral load around ACIS-treated VERO cells (***p<0.0001) (FIG. 6B).\nIn order to evaluate the efficacy of the KEPTIDE COVID in suppressing the secondary or chronic infection of SARS-COV2, testing was performed by dual immunostaining procedure after six hours of viral infection. […] The effect was further confirmed with a quantitative analysis (FIG. 7B).\nDouble Immunocytochemistry analyses was performed where […] VERO Cells were plated per well in 8-well chamber slide. Cells were starved with serum-free DMEM media for 30 mins followed by the treatment with 25 μM FITC-labeled KEPTIDE COVID. After another 30 mins, unbound KEPTIDE COVIDs were aspirated and then added SARS-CoV2 at a dose of 1-2 PFU/cell. After 2 and 6 hours of virus treatment, viral cells were removed, VERO cells were fixed with 8% PFA and kept at 4° C. for overnight. […]"}, "ACE-2 [5]": {"biological_target": "T1, ACE-2", "assay": "fluorescence polarization (FP) assay", "format": "binding", "details": "FITC tag at C-terminal end (FIG. 3C)"}, "[6]": {"biological_target": "T2, interaction between S-glycoprotein and ACE-2 protein (Homo sapiens, UniProt Q9BYF1)", "T2 construct": "purchased", "T2 sequence (Q9BYF1 18-740)": "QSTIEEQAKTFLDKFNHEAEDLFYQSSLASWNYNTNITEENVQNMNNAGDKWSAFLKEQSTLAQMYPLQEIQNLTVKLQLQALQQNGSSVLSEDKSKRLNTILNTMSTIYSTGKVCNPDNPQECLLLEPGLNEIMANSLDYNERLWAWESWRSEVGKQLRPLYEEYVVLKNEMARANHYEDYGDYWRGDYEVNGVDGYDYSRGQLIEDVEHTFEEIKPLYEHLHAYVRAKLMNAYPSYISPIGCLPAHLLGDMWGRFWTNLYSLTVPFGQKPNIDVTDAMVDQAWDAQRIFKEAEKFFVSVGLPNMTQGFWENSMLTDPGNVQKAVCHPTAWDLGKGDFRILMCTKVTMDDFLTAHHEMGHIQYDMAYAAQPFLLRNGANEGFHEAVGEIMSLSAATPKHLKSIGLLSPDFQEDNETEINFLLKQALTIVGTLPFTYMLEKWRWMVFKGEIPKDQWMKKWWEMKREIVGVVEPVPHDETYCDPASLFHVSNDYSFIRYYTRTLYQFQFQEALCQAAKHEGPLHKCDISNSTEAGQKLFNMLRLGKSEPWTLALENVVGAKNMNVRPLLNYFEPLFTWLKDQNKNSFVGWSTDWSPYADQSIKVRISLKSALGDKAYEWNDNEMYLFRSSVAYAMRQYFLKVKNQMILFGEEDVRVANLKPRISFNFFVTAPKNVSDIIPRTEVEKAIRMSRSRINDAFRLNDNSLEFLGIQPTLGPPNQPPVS", "assay": "kit-based luminometric inhibitor screen assay", "format": "biochemical, SARS-CoV2", "excerpt": "A kit-based luminometric inhibitor screen assay was used to evaluate the efficacy of the biotinylated and FITC labeled ACIS in inhibiting the interaction between S-glycoprotein and ACE-2 protein."}, "[7]": {"tested_on": "SARS-CoV2 in VERO E6 cells", "assay": "SARS-CoV2 plaque assay in VERO E6 cells", "format": "cell-based", "details": "25 μM pre-incubation 30 mins; compared to control; KEPTIDE1 at 1:20 dilution dose"}}}
{"compound": "CC(C)[C@H](NC(=O)CNC(=O)[C@H](CC(N)=O)NC(=O)[C@@H](NC(=O)[C@@H]1CCCN1C(=O)[C@H](CCC(N)=O)NC(=O)[C@@H](N)Cc1ccccc1)[C@@H](C)O)C(=O)NCC(=O)N[C@@H](Cc1ccc(O)cc1)C(=O)N[C@@H](CCC(N)=O)C(=O)N1CCC[C@H]1C(=O)N[C@@H](Cc1ccc(O)cc1)C(=O)NCC(=O)O", "note": "[ACIS peptide, FQPTNGVGYQPYG]", "values": [{"measurement": "Kd", "setting": "[1]", "value": 115, "unit": "nM"}, {"measurement": "minimum concentration with dose-dependent binding", "setting": "[1]; sensor loaded with ACIS 0.25 μg/μL, titrated with ACE-2", "value": 13, "unit": "nM"}, {"measurement": "damage of agar monolayer (loss of CV staining) by viral supernatants of treated VERO cells", "setting": "[2]", "value": "significant damage in agar monolayer"}, {"measurement": "interaction with ACE-2 enzyme (binding curve)", "setting": "ACE-2 [3]", "value": "strong interaction with ACE-2 enzyme"}, {"measurement": "inhibition of viral particles, secondary or chronic infection", "setting": "[4]; 6 hours of infection", "value": "continued to repel viral particles significantly from VERO cells"}, {"measurement": "inhibition of entry of viral particles, acute infection", "setting": "[4]; two hours of SARS-CoV2 treatment (1-2 PFU)", "value": "substantially inhibit the entry of viral particles"}]}
{"compound": "CC(C)[C@H](NC(=O)CNC(=O)[C@H](CC(N)=O)NC(=O)[C@@H](NC(=O)[C@@H]1CCCN1C(=O)[C@H](CCC(N)=O)NC(=O)[C@@H](N)Cc1ccccc1)[C@@H](C)O)C(=O)NCC(=O)N[C@@H](Cc1ccc(O)cc1)C(=O)N[C@@H](CCC(N)=O)C(=O)N1CCC[C@H]1C(=O)N[C@@H](Cc1ccc(O)cc1)C(=O)NCC(=O)N[C@@H](CCCCNC(=S)Nc1ccc2c(c1)C(=O)OC21c2ccc(O)cc2Oc2cc(O)ccc21)C(=O)O", "note": "[KEPTIDE2]", "values": [{"measurement": "concentration at which peptide binds with ACE-2", "setting": "ACE-2 [5]", "value": 6.376, "unit": "nM"}, {"measurement": "hillslope of the inhibition plot", "setting": "[6]", "value": "−2.4"}, {"measurement": "increase in protection, densitometric quantification of plaque assay", "setting": "[7]", "value": "three-fold increase in protection"}]}
